Reference: the NIST ThermoML archive (doi:10.1021/je700260f)

Settings: 293.15 K, Liquid, Vibrating tube method

FC(C(F)(F)F)C(F)(F)F [1,1,1,2,3,3,3-heptafluoropropane]
Settings	mass density [kg/m3]
19492 kPa	1505.8
19631 kPa	1506.6
19665 kPa	1506.5
19699 kPa	1506.6
19732 kPa	1506.9
19762 kPa	1506.9
19806 kPa	1507.1
19844 kPa	1507.3
19868 kPa	1507.3
19906 kPa	1507.5
19940 kPa	1507.7
19974 kPa	1507.8
20007 kPa	1507.9
20047 kPa	1508
20080 kPa	1508.1
20109 kPa	1508.3
20152 kPa	1508.4
20190 kPa	1508.6
20215 kPa	1508.7
20258 kPa	1508.8
20302 kPa	1508.9
20335 kPa	1509.2
20375 kPa	1509.2
20404 kPa	1509.3
20434 kPa	1509.5
20478 kPa	1509.6
20517 kPa	1509.9
20546 kPa	1510
20591 kPa	1510.1
20630 kPa	1510.1
20659 kPa	1510.3
20702 kPa	1510.5
20732 kPa	1510.6
20761 kPa	1510.6
20802 kPa	1510.8
20843 kPa	1511
20873 kPa	1511
20907 kPa	1511.2
20982 kPa	1511.5
21017 kPa	1511.6
21048 kPa	1511.8
21094 kPa	1511.9
21134 kPa	1512
21164 kPa	1512.1
21209 kPa	1512.3
21245 kPa	1512.4
21279 kPa	1512.5
21314 kPa	1512.7
21359 kPa	1512.8
21389 kPa	1513
21458 kPa	1513.1
21488 kPa	1513.2
21669 kPa	1513.9
21699 kPa	1513.9
21739 kPa	1514.2
21927 kPa	1514.8
21967 kPa	1515
22009 kPa	1515.2
22034 kPa	1515.3
22076 kPa	1515.4
22122 kPa	1515.5
22152 kPa	1515.7
22194 kPa	1515.8
22230 kPa	1515.9
22261 kPa	1516.2
22291 kPa	1516.2
22322 kPa	1516.3
22358 kPa	1516.3
22404 kPa	1516.5
22440 kPa	1516.7
22476 kPa	1516.8
22522 kPa	1516.9
22548 kPa	1517.1
22584 kPa	1517.1
22625 kPa	1517.4
22661 kPa	1517.5
22702 kPa	1517.6
22744 kPa	1517.7
22781 kPa	1517.9
22813 kPa	1518
22849 kPa	1518.2
22886 kPa	1518.3
22923 kPa	1518.4
22959 kPa	1518.6
23001 kPa	1518.7
23042 kPa	1518.8
23072 kPa	1518.8
23118 kPa	1519
23154 kPa	1519.1
23191 kPa	1519.3
23228 kPa	1519.5
23271 kPa	1519.7
23308 kPa	1519.7
23350 kPa	1519.8
23392 kPa	1520
23424 kPa	1520.1
23466 kPa	1520.2
23513 kPa	1520.5
23540 kPa	1520.6
23577 kPa	1520.5
23615 kPa	1520.7
23648 kPa	1520.9
23692 kPa	1521
23735 kPa	1521.1
23815 kPa	1521.5
23852 kPa	1521.6
23883 kPa	1521.6
23925 kPa	1521.8
23962 kPa	1521.9
23986 kPa	1522.1
24019 kPa	1522.1
24048 kPa	1522.3
24087 kPa	1522.4
24120 kPa	1522.5
24149 kPa	1522.6
24187 kPa	1522.7
24229 kPa	1522.8
24263 kPa	1523
24297 kPa	1523
24326 kPa	1523.2
24354 kPa	1523.2
24393 kPa	1523.3
24422 kPa	1523.3
24451 kPa	1523.5
24485 kPa	1523.6
24524 kPa	1523.8
24553 kPa	1523.9
24587 kPa	1524.1
24630 kPa	1524.2
24659 kPa	1524.3
24698 kPa	1524.5
24728 kPa	1524.6
24757 kPa	1524.6
24786 kPa	1524.7
24816 kPa	1524.7
24851 kPa	1524.9
24886 kPa	1525
24920 kPa	1525.2
24949 kPa	1525.2
24991 kPa	1525.5
25030 kPa	1525.6
25059 kPa	1525.6
25097 kPa	1525.8
25136 kPa	1525.9
25165 kPa	1526.1
25199 kPa	1526.1
25229 kPa	1526.1
25268 kPa	1526.4
25297 kPa	1526.4
25326 kPa	1526.6
25360 kPa	1526.8
25393 kPa	1526.6
25438 kPa	1526.9
25466 kPa	1527
25496 kPa	1527.2
25530 kPa	1527.2
25569 kPa	1527.4
25594 kPa	1527.4
25639 kPa	1527.4
25678 kPa	1527.7
25708 kPa	1527.9
25747 kPa	1527.9
25791 kPa	1528.1
25816 kPa	1528.2
25845 kPa	1528.1
25889 kPa	1528.4
25923 kPa	1528.5
25958 kPa	1528.6
25994 kPa	1528.8
26024 kPa	1528.9
26068 kPa	1529
26112 kPa	1529.1
26141 kPa	1529.3
26181 kPa	1529.4
26220 kPa	1529.5
26250 kPa	1529.5
26284 kPa	1529.7
26319 kPa	1529.8
26349 kPa	1529.9
26391 kPa	1530.1
26430 kPa	1530.1
26455 kPa	1530.3
26504 kPa	1530.5
26534 kPa	1530.6
26570 kPa	1530.6
26610 kPa	1530.7
26646 kPa	1530.8
26682 kPa	1530.9
26717 kPa	1531.1
26753 kPa	1531.3
26784 kPa	1531.3
26824 kPa	1531.4
26864 kPa	1531.6
26899 kPa	1531.6
26939 kPa	1531.8
26979 kPa	1532
27009 kPa	1532.1
27045 kPa	1532.2
27080 kPa	1532.3
27115 kPa	1532.4
27151 kPa	1532.6
27188 kPa	1532.6
27224 kPa	1532.8
27265 kPa	1532.9
27302 kPa	1533.1
